Results from publication PMC6853638, “TMC1 is an essential component of a leak channel that modulates tonotopy and excitability of auditory hair cells in mice” (eLife, 2019).
Residue numbers refer to the chain shown, from its start. Where “and” joins values, the source holds several entries; their conditions need not be identical. Identical values can stand only once.

Assays:
[1] = biological target: T1, cysteine-substituted TMC1 constructs (Mus musculus, UniProt Q8R4P5, D569C); test: Background current before and after MTSET treatment in Tmc1-knockout OHCs expressing cysteine-substituted TMC1; format: cell-based; settings: Tmc1-knockout OHCs expressing TMC1-D569C, individual cells
T1 construct: control full-length TMC1 (TMC1_WT); expressed in transfected cells; host or cells: Tmc1-knockout mouse OHCs, injectoporation
T1 sequence (Q8R4P5 1-757 D569C): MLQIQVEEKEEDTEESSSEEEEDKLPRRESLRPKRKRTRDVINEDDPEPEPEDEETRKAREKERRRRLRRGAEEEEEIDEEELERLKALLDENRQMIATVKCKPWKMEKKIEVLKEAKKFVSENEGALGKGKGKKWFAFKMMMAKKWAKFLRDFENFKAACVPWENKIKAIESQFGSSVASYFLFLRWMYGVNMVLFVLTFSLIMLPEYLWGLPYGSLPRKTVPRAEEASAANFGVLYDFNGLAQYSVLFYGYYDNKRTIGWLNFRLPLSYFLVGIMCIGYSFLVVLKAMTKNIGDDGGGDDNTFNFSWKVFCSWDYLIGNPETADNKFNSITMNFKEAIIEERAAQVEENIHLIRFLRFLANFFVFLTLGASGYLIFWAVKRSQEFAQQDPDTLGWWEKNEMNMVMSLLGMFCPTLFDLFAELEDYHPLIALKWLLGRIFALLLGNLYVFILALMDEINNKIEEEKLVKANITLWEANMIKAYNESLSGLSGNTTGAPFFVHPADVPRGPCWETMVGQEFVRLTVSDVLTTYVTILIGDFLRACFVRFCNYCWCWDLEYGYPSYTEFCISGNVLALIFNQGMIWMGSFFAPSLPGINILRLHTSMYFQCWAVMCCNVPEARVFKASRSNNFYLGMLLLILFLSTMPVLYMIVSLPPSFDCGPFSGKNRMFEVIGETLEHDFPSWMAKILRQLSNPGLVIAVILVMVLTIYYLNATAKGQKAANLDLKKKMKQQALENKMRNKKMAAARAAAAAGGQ
Procedure: (§1) Mouse Tmc1 and Tmc2 cDNAs were cloned into CMV-Script and pCDNA3.1- vectors, respectively. To obtain the Tmc1-deafness vector and amino-acid-substituted Tmc1 constructs, specific primers were designed and used for PCR (Supplementary File 1). […] In brief, the organ of Corti was isolated from P3 mice and cut into three pieces in Dulbecco’s modified Eagle’s medium/F12 with 1.5 μg/ml ampicillin. For electroporation, a glass pipette (2 μm tip diameter) was used to deliver cDNA plasmids (0.2 μg/μl in 1 × Hanks' balanced salt solution) to hair cells in the sensory epithelium. EGFP was used as an indicator for the selection of transfected hair cells. A series of three pulses at 60 V lasting 15 ms at 1 s intervals was applied to cochlear tissues by an electroporator (ECM Gemini X2, BTX, CA). The cochlear tissues were cultured for 1 day in vitro and then used for electrophysiological recording.
(§2) All experiments were performed at room temperature (20–25°C). Briefly, the basilar membrane with hair cells was acutely dissected from neonatal mice. […] The acutely isolated or cultured basilar membrane was used for electrophysiological recording within 1 h. […] Hair cells were recorded with a patch-clamp amplifier (EPC 10 USB and Patchmaster software, HEKA Elektronik, Lambrecht/Pfalz, Germany).
(§3) The sampling rate was 1 kHz for leak current recording, 50 kHz for the IV protocol and current-clamp recording, and 100 kHz for unitary channel recording. The voltage-clamp used a –70 mV holding potential, and the current-clamp was held at 0 pA. Only recordings with a current baseline <20 pA in NMDG solution were used for statistical analysis.

[2] = biological target: T2, cysteine-substituted TMC1 constructs (Mus musculus, UniProt Q8R4P5, D528C); test: as above; format: cell-based; settings: Tmc1-knockout OHCs expressing TMC1-D528C, individual cells
T2 construct: control full-length TMC1 (TMC1_WT); expressed in transfected cells; host or cells: Tmc1-knockout mouse OHCs, injectoporation
T2 sequence (Q8R4P5 1-757 D528C): T1 sequence (Q8R4P5 1-757 D569C) with D528C, C569D
Procedure: as §1, §2, §3

In the case of `C[N+](C)(C)CCSS(C)(=O)=O.[Br-]` [MTSET, 2-(trimethylammonium)ethyl methanethiosulfonate, bromide], the “amplitude of the background current after MTSET treatment” value [1] is reported as -25.3123 and -14.3715 and -14.7309 and -35.792 and the “amplitude of the background current after MTSET treatment” value [2] is reported as -23.6585 and -22.824 and -11.63 and -11.1296.
